From patent publication US9301923B2, “Lipids, lipid compositions, and methods of using them” (NOVARTIS AG, priority 2009, dated 2016) come the findings set out here.

Where “and” joins values, the source holds several entries; their conditions need not be identical. Identical values can stand only once. Like-named read-outs stand apart in the source and are kept apart here.

The nature of data set [1]: pKa of the lipid by TNS fluorescence. It is filed as physicochemical. The essentials: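 Lipid dissolved in ethanol (2 mM stock) and measured with TNS across eight buffers of differing pH, in water at standard temperature and pressure. Normalized fluorescence intensity plotted against pH and points joined by a smooth line to derive pKa, precise to about 0.2 units.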
The subject of the next data set is Factor VII. The data set can be described thus: Factor VII activity assay, in vivo liver delivery of FVII siRNA LNP. Set-up: species or system mouse. The settings on record: for FVII inhib %: ~48 h. The method, boiled down:
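Female CD-1 mice (~25 g) given a single i.v. tail-vein dose of FVII siRNA in LNPs (cationic, stealth, neutral lipids), dosed as mg siRNA/kg. Plasma collected ~48 h post-injection; FVII activity read against a standard curve from pooled vehicle-control plasma.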

The subject of data set [2] is PLK-1 mRNA in Hep3B tumors. The data set can be described thus: Hep3B tumor study, PLK-1 mRNA KD in tumor tissue. It is filed as in vivo, human. To be noted: for PLK1 inhibition %: Hep3B tumor, mouse, i.v., LNP composition as in the source; for % KD: formulation containing E0011 and S004. The text has this: Formulated siRNAs are made up of double stranded siRNA sequences specific to a target mRNA sequence, and are in the form of lipid nucleotid particles (LNPs) containing cationic lipids, stealth lipids and neutral lipids, as provided in the Examples below. The siRNA construct for use in targeting the liver is specific to Factor VII. The siRNA construct for use in targeting tumors is specific to PLK1-424, which is published by Judge et al., See, J Clin Invest. 2009 March; 119(3):661-73; doi: 10.1172/JCI37515). • 1. FVII siRNA duplex sequence
Hep3B tumors are established in female nude mice by sc injection of 7×10^6 cells in 100 ul PBS into the left flank. Mice are randomized into treatment groups 10-14 days after seeding as tumors reached an average size of 100 mm^3. siRNA formulated LNP formulations are administered at various dose levels intravenously via the lateral tail vein calculated on a mg siRNAs/kg basis according to individual animal weights (10 ml/kg injection volume). Mice are euthanized by CO2 inhalation at various time points and the tumors are harvested for mRNA quantitation. Lipids with a wide range of pKa (5.3-6.6) are used in the LNP formulations. Tumors are measured in 2 dimensions (width×length) to assess tumor growth using digital calipers. Tumor volume is calculated using the equation [a×b×b/2], where a equals the largest diameter and b equals the smallest diameter.
About 30-50 mg tumor tissue is homogenized in tissue lysis buffer in a Qiagen homogenizer followed by centrifugation to clarify lysates. Total RNA is isolated using RNeasy isolation kit (catalog number 74106) according to the manufacture's protocol. PLK-1 mRNA is analyzed by quantitative PCR and normalized to human GAPDH. Applied Biosystems human PLK-1 gene expression assay Hs00983229_m1 and human GAPDH endogenous control cat number 4326317E are used for mRNA detection.
The pKa in all tables refers to the pKa of the cationic lipid. Where multiple doses are indicated (e.g., 3×5), the first number indicates the number of doses given and the second number indicates the amount per dose in mg siRNA (biologically active agent) per kg mouse. In general the multiple doses are administered at 24 hour intervals, and tissues for mRNA quantitation are harvested 24 hours after the last dose.

A short description of data set [3]: Particle size and PDI by dynamic light scattering (Malvern Zetasizer). It is filed as physicochemical. The settings on record: for Final size: LNP formulation, Table 10. Set-up: Final size: unit not given here. The method, boiled down:
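Nanoparticles diluted in PBS to a count rate of about 200-400 kcts and measured by dynamic light scattering; size given as intensity-weighted average diameter, with polydispersity index from the same measurement.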

[4] abbreviates: dose 3 mg/kg siRNA i.v., lipid/DSPC/CHOL/AVANTI 880150P 50/28/18/4, N/P 3.43.
The mark [5] stands for this setting: dose 3 mg/kg siRNA i.v., lipid/no neutral lipid/CHOL/AVANTI 880150P 50/0/46/4, N/P 3.43.
[6] abbreviates: lipid/DSPC/CHOL/AVANTI 880150P 50/28/18/4, N/P 3.43.
The mark [7] stands for this setting: lipid/no neutral lipid/CHOL/AVANTI 880150P 50/0/46/4, N/P 3.43.
Where [8] appears, read: dose 1 mg/kg siRNA i.v., lipid/DSPC/CHOL/AVANTI 880150P 50/28/18/4, N/P 3.43.
Where [9] appears, read: LNP formulation with PLK1 siRNA, helper, neutral and stealth lipid, molar ratio and N/P as in the table.
Where [10] appears, read: lipid/no neutral lipid/CHOL/GM-020 NOF 60/0/34/6, N/P 3.
Setting [11] is: lipid/no neutral lipid/CHOL/GM-020 NOF 60/0/36/4, N/P 3.
The mark [12] stands for this setting: lipid/no neutral lipid/CHOL/GM-020 NOF 60/0/38/2, N/P 3.
Setting [13] is: lipid/no neutral lipid/CHOL/S006 60/0/37/3, N/P 3.
The mark [14] stands for this setting: lipid/no neutral lipid/CHOL/S010 60/0/37/3, N/P 3.

In turn, `CCCCC/C=C\C/C=C\CCCCCCCCOCC(CN1CCC(C)CC1)OCCOCCO[C@H]1CC[C@@]2(C)C(=CC[C@H]3[C@@H]4CC[C@H]([C@H](C)CCCC(C)C)[C@@]4(C)CC[C@@H]32)C1` (some centres unmarked) [E0008] registered a pKa in data set [1] (pKa) of 5.81. Further, the FVII inhib % in the data set on Factor VII (setting [4]) is recorded as 73%; in the data set with Factor VII (setting [5]), 84.5%. For the same compound, the PLK1 inhibition % in data set [2] (1 × 1 mg siRNA/kg) is recorded as 38%; in data set [2] (1 × 5 mg siRNA/kg), 85%. Besides, the “Final size (nm)” value turned out to be 123.1 nm in data set [3] (LNP formulation with PLK1 siRNA, helper, neutral and stealth lipid, molar ratio and N/P as in the table, stealth lipid S004, molar ratio 60/38/2, N/P 4); 93.11 nm in data set [3] (LNP formulation with PLK1 siRNA, helper, neutral and stealth lipid, molar ratio and N/P as in the table, stealth lipid S011, molar ratio 60/38/2, N/P 4); 85 nm in data set [3] (setting [6]); 84 nm in data set [3] (setting [7]). Moreover, the PDI stood at 0.168 in data set [3] (setting [6]) and 0.214 in data set [3] (setting [7]).
`CCCCC/C=C\C/C=C\CCCCCCCCOCC(CN1CCOCC1)OCCOCCO[C@H]1CC[C@@]2(C)C(=CC[C@H]3[C@@H]4CC[C@H]([C@H](C)CCCC(C)C)[C@@]4(C)CC[C@@H]32)C1` (some centres unmarked) [E0011] displayed a pKa in data set [1] (pKa) of 5.32. The FVII inhib % in the data set with Factor VII (setting [4]) worked out at 86.5%; in the data set on Factor VII (setting [5]) it was 92.3%. For the same compound, the values for the PLK1 inhibition % in data set [2] (1 × 5 mg siRNA/kg) and in data set [2] (3 × 10 mg siRNA/kg) were 66% and 71%, respectively. The “% KD” value in data set [2] (Table 9, 1×10 mg/kg siRNA) turned out to be 70%; in data set [2] (Table 9, 3×5 mg/kg siRNA), 67%. For the same compound, the values for the Final size in data set [3] (stealth lipid S018), in data set [3] (stealth lipid S019) and in data set [3] (stealth lipid S020) were 113.2, 110 and 74.42, respectively. The results for the “Final size (nm)” value in data set [3] (setting [6]) and in data set [3] (setting [7]) were 111 nm and 108 nm, respectively. Also, the PDI turned out to be 0.221 in data set [3] (setting [6]) and 0.23 in data set [3] (setting [7]).
With `CCCCC/C=C\C/C=C\CCCCCCCCOCC(CN1CCCCC1)OCCOCCO[C@H]1CC[C@@]2(C)C(=CCC3C2CC[C@@]2(C)C3CC[C@@H]2[C@H](C)CCCC(C)C)C1` (some centres unmarked) [E0014], the pKa in data set [1] and in data set [1] (pKa) was 6.4 throughout. The FVII inhib % is 72.1% in the data set on Factor VII (setting [8]); 25% in the data set on Factor VII (dose 1 mg/kg siRNA i.v., lipid/no neutral lipid/CHOL/GM-020 NOF 60/0/34/6, N/P 3); 68.5% and 37.6% with Factor VII (dose 1 mg/kg siRNA i.v., lipid/no neutral lipid/CHOL/GM-020 NOF 60/0/36/4, N/P 3, 1 mg/kg); 71.5% with Factor VII (dose 1 mg/kg siRNA i.v., lipid/no neutral lipid/CHOL/GM-020 NOF 60/0/38/2, N/P 3); 98.6% and 95.8% in the data set on Factor VII (dose 3 mg/kg siRNA i.v., lipid/DSPC/CHOL/AVANTI 880150P 50/28/18/4, N/P 3.43, 3 mg/kg); 97.4% in the data set with Factor VII (setting [5]). In addition, the FVII inhib % was determined as 96.6% in the data set on Factor VII (dose 3 mg/kg siRNA i.v., lipid/no neutral lipid/CHOL/GM-020 NOF 60/0/34/6, N/P 3); 94% with Factor VII (dose 3 mg/kg siRNA i.v., lipid/no neutral lipid/CHOL/GM-020 NOF 60/0/36/4, N/P 3); 96.2% in the data set with Factor VII (dose 3 mg/kg siRNA i.v., lipid/no neutral lipid/CHOL/GM-020 NOF 60/0/38/2, N/P 3). For the same compound, the “in vivo Factor VII inhibition” value in the data set with Factor VII (formulation containing the cationic lipid, RNAi construct specific to Factor VII, liver) was 97.4%. Besides, in data set [2] (1 × 10 mg siRNA/kg), the PLK1 inhibition % worked out at 22%. Further, the “Final size (nm)” value is 82.21 nm in data set [3] (setting [9]); 104 nm and 95 nm in data set [3] (setting [6]); 148 nm in data set [3] (setting [7]); 85.8 nm in data set [3] (setting [10]); 101.5 nm and 94.6 nm in data set [3] (setting [11]); 141 nm in data set [3] (setting [12]). Further, the PDI in data set [3] (setting [6]) was 0.151 and 0.148; in data set [3] (setting [7]) it was 0.05; in data set [3] (setting [10]), 0.106; in data set [3] (setting [11]) it was 0.182 and 0.092; in data set [3] (setting [12]) it was 0.122.
Consider `CCCCC/C=C\C/C=C\CCCCCCCCOCC(CN1CCC(OC)C1)OCCOCCO[C@H]1CC[C@@]2(C)C(=CC[C@H]3[C@@H]4CC[C@H]([C@H](C)CCCC(C)C)[C@@]4(C)CC[C@@H]32)C1` (some centres unmarked) [E0024], for which the pKa in data set [1] (pKa) was 6.62. The FVII inhib % is 85.3% with Factor VII (setting [8]); 95.7% with Factor VII (dose 1 mg/kg siRNA i.v., lipid/no neutral lipid/CHOL/AVANTI 880150P 50/0/46/4, N/P 3.43); 83.8% in the data set on Factor VII (dose 1 mg/kg siRNA i.v., lipid/no neutral lipid/CHOL/S006 60/0/37/3, N/P 3); 72.2% with Factor VII (dose 1 mg/kg siRNA i.v., lipid/no neutral lipid/CHOL/S010 60/0/37/3, N/P 3); 99.9% with Factor VII (setting [4]); 99.5% in the data set on Factor VII (setting [5]). Moreover, the PLK1 inhibition % was determined as 15% in data set [2] (1 × 10 mg siRNA/kg) and 23% in data set [2] (4 × 5 mg siRNA/kg). For the same compound, the “Final size (nm)” value in data set [3] (LNP formulation with PLK1 siRNA, helper, neutral and stealth lipid, molar ratio and N/P as in the table, stealth lipid S004, molar ratio 60/38/0/2, N/P 3) was 120.6 nm; in data set [3] (LNP formulation with PLK1 siRNA, helper, neutral and stealth lipid, molar ratio and N/P as in the table, stealth lipid S011, molar ratio 40/48/10/2, N/P 3), 88.46 nm; in data set [3] (setting [6]), 100 nm; in data set [3] (setting [7]), 149 nm and 125 nm; in data set [3] (setting [13]) it was 98.53 nm; in data set [3] (setting [14]), 96.09 nm. Besides, the PDI is 0.148 in data set [3] (setting [6]); 0.092 and 0.08 in data set [3] (setting [7]); 0.12 in data set [3] (setting [13]); 0.137 in data set [3] (setting [14]).
Consider `CCCCCCCC/C=C\CCCCCCCCOCC(CN1CCOCC1)OCCOCC(=O)OC1CC[C@@]2(C)C(=CCC3C2CC[C@@]2(C)C3CC[C@@H]2[C@H](C)CCCC(C)C)C1` (some centres unmarked) [E0167], for which the pKa in data set [1] (pKa) was 5.21. The PLK1 inhibition % in data set [2] (1 × 1 mg siRNA/kg) was determined as 23%. Further, the “Final size (nm)” value in data set [3] (setting [9]) was 86.57 nm.
In the same order, the values of `CCCCC/C=C\C/C=C\CCCCCCCCOCC(CN1CCCCC1)OCCCOC(=O)CCC(=O)O[C@H]1CC[C@@]2(C)C(=CC[C@H]3[C@@H]4CC[C@H]([C@H](C)CCCC(C)C)[C@@]4(C)CC[C@@H]32)C1` (some centres unmarked) [E0179] are 5.95, 53% and 114.6 nm.
